Literature values, collected in US6171786A, “Methods for preventing multidrug resistance in cancer cells” (priority 1996, dated 2001).

Columns and labels:
[1] = clinical trials; Berdel et al., 1988; cited from earlier work
[2] = test system: hormone-refractory prostate cancer; details: continuous infusion, peak of 300 μg/mL at end of 14 days; cited from earlier work

## CCCCCCCCCCCCCCCCSCC(COC)COP(=O)([O-])OCC[N+](C)(C)C (centres unmarked) [ilmofosine]
[1]
  MTD, oral administration: 200 mg/day

## Cc1ccc(C(=O)Nc2ccc(S(=O)(=O)O)c3cc(S(=O)(=O)O)cc(S(=O)(=O)O)c23)cc1NC(=O)c1cccc(NC(=O)Nc2cccc(C(=O)Nc3cc(C(=O)Nc4ccc(S(=O)(=O)O)c5cc(S(=O)(=O)O)cc(S(=O)(=O)O)c45)ccc3C)c2)c1 [suramin]
[2]
  activity in hormone-refractory prostate cancer: has shown activity in hormone-refractory prostate cancer
